Earlier results in patent US5478810A, “Peptide amides, processes for the preparation thereof and agents containing these as fibrin/thrombin clotting inhibitors” (Behringwerke Aktiengesellschaft, priority 1990, dated 1995).
No end group written: not given here. *: point of attachment. 4‑hydroxypiperidide = C-terminal 4-hydroxypiperidide, OC1CCN(*)CC1; 3‑methylpiperidide = C-terminal 3-methylpiperidide

Test system: plasma clotting
Conditions: relative to GPRP = 1

Substance | relative activity (amount of plasma which is inhibited with a defined amount of inhibitor)
GPRP 3-methylpiperidide (GPRP-{3‑methylpiperidide}) [known peptide derivative presented at the XIth American Symposium on Peptides] | 1.29
GPRP 4-hydroxypiperidide (GPRP-{4‑hydroxypiperidide}) [known peptide derivative presented at the XIth American Symposium on Peptides] | 1.2
GPRP-NH2 | 3.52
